Test results reported in PubChem BioAssay (NCI).
Values joined by “and” are separate entries in the source; they are usually repeats but may differ in a detail not shown here. Equal values may be shown once.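 Where inhibition never reached the appropriate level, the endpoint shown equals the highest concentration tested. Otherwise, values were interpolated linearly from a five-concentration, 48-hour dose response in 96-well plates. Here, GI50 denotes the concentration required for 50% inhibition of growth. TGI is the concentration that stops growth completely.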

How the values were obtained:
Assay in all cases: inhibition of tumour cell growth, NCI panel, 48 h
786-0 renal = system: 786-0 renal
A549 NSCLC = system: A549 NSCLC
ACHN renal = system: ACHN renal
COLO 205 colon = system: COLO 205 colon
HOP-92 NSCLC = system: HOP-92 NSCLC
M14 melanoma = system: M14 melanoma
RPMI-8226 leukemia = system: RPMI-8226 leukemia
SF-268 CNS = system: SF-268 CNS
SF-539 CNS = system: SF-539 CNS
U251 CNS = system: U251 CNS

SMILES	TGI (786-0 renal)	TGI (A549 NSCLC)	TGI (ACHN renal)	TGI (COLO 205 colon)	TGI (HOP-92 NSCLC)	TGI (M14 melanoma)	TGI (RPMI-8226 leukemia)	TGI (SF-268 CNS)	TGI (SF-539 CNS)	TGI (U251 CNS)	GI50 (786-0 renal)	GI50 (A549 NSCLC)	GI50 (ACHN renal)	GI50 (COLO 205 colon)	GI50 (HOP-92 NSCLC)	GI50 (M14 melanoma)	GI50 (RPMI-8226 leukemia)	GI50 (SF-268 CNS)	GI50 (SF-539 CNS)	GI50 (U251 CNS)
S=C(Nc1ccc(Cl)cc1)SC1CCCCC1	> 100 µM	56.4 µM	36.6 µM	> 100 µM	71.2 µM	42.7 µM	> 100 µM	84.9 µM	61.3 µM	> 100 µM	–	–	–	–	–	–	–	–	–	–
CC(C)(C)C1CCC(CI)(N=[N+]=[N-])CC1 (configuration not stated)	> 100 µM	> 100 µM	> 100 µM	> 100 µM	> 100 µM	> 100 µM	> 100 µM	> 100 µM	> 100 µM	> 100 µM	–	–	–	–	–	–	–	–	–	–
CCN1CCN(CC(=O)Nc2nc3ccc(NCc4ccc(C)cc4)cc3s2)CC1	10.9 µM	8.61 µM	12.3 µM	2.1 µM	2.34 µM	2.19 µM	3.34 µM	16.5 µM	4.3 µM	9.14 µM	4.24 µM	2.29 µM	6.06 µM	1.03 µM	0.504 µM	1.14 µM	1.09 µM	5.76 µM	1.5 µM	2.77 µM
NC(Cc1ccc(O)cc1)C(=O)N/N=C/c1ccc(N(CCCl)CCCl)cc1 (configuration not stated)	75.9 µM	> 100 µM	> 100 µM	> 100 µM	> 100 µM	81.2 µM	> 100 µM	87.8 µM	68.3 µM	> 100 µM	5.98 µM	6.39 µM	6.42 µM	44.5 µM	21.4 µM	17.5 µM	10.1 µM	2.81 µM	4.26 µM	27.8 µM
O=C(O)c1ccccc1-c1ccccc1C(=O)Nc1ccc2c(c1)Cc1ccccc1-2	> 100 µM	97.5 µM	> 100 µM	31.2 µM	> 100 µM	41.6 µM	70.4 µM	> 100 µM	44.6 µM	> 100 µM	–	–	–	–	–	–	–	–	–	–
Cc1cc(N2CCN(C)CC2)nc(N(CCNc2ccnc3cc(Cl)ccc23)Cc2ccco2)n1	4.83 µM	14.6 µM	17.5 µM	5.18 µM	14.9 µM	3.3 µM	5.72 µM	20.3 µM	3.25 µM	10.2 µM	1.93 µM	4.1 µM	5.08 µM	1.88 µM	3.1 µM	1.78 µM	2.18 µM	5.82 µM	1.68 µM	3.11 µM
Cc1ccc(C)c(NC(=O)C(=O)CC(=O)c2cccc3ccccc23)c1	> 100 µM	> 100 µM	> 100 µM	> 100 µM	> 100 µM	> 100 µM	> 100 µM	> 100 µM	> 100 µM	> 100 µM	–	–	–	–	–	–	–	–	–	–
COC(=O)c1c2c(c(C)[n+]([O-])c1C)C(=O)C=C(NCc1ccc(Br)cc1)C2=O	2.23 µM	2.74 µM	2.1 µM	1.17 µM	3.6 µM	1.04 µM	5.1 µM	3.35 µM	2 µM	2.46 µM	0.637 µM	0.705 µM	0.575 µM	0.322 µM	1.74 µM	0.0442 µM	1.47 µM	1.22 µM	0.72 µM	0.778 µM
O=C1C=CC(=O)c2c1cc1ccccc1c2O	18.7 µM	35.3 µM	8.26 µM	6.15 µM	3.61 µM	26.5 µM	> 26 µM	29.2 µM	25 µM	27.1 µM	–	–	–	–	–	–	–	–	–	–
CC[C@@]1(O)C(=O)OCc2c1cc1n(c2=O)Cc2cc3c(Cl)c4c(cc3nc2-1)OCO4	> 100 µM	1.68 µM and 3.7 µM	0.00185 µM and 0.0109 µM	> 100 µM	0.0801 µM	4.02 µM	4.38 µM	13.2 µM	0.0924 µM	–	–	< 0.001 µM	< 0.001 µM	1.05 µM	< 0.001 µM	< 0.001 µM	–	0.0216 µM	< 0.001 µM	< 0.001 µM
Cc1ccc2c(n1)C(=O)C(Cl)=C(Nc1ccc(N3CCN(C)CC3)cc1)C2=O	3.1 µM	30 µM	3.13 µM	3.27 µM	3.21 µM	3.32 µM	7.28 µM	4.13 µM	3.22 µM	3.19 µM	1.71 µM	14.6 µM	1.75 µM	1.77 µM	1.68 µM	1.84 µM	2.68 µM	1.89 µM	1.74 µM	1.79 µM
CC(=O)Nc1cc(C(c2ccccc2)c2ccccc2)cc(C(c2ccccc2)c2ccccc2)c1C	> 100 µM	> 100 µM	> 100 µM	> 100 µM	> 100 µM	> 100 µM	7.67 µM	> 100 µM	> 100 µM	> 100 µM	> 100 µM	4.95 µM	8.71 µM	7.36 µM	4.68 µM	> 100 µM	1.88 µM	8.2 µM	> 100 µM	7.63 µM
O=S1CCN(Cc2ccc(-c3ccc4ncnc(Nc5ccc(OCc6ccccc6)c(F)c5)c4c3)o2)CC1	18.6 µM	> 25 µM	> 25 µM	10.6 µM	17.7 µM	> 21.6 µM	> 25 µM	> 25 µM	15.1 µM	> 25 µM	6.59 µM	7.55 µM	0.757 µM	4.42 µM	3.76 µM	6.26 µM	8.71 µM	17.8 µM	5.84 µM	13.9 µM
[CH3][Sn]([CH3])([CH3])[O]C(=O)C(O)c1ccccc1 (configuration not stated)	> 100 µM	49.1 µM	> 100 µM	23.7 µM	14.4 µM	4.15 µM	> 44.2 µM	> 82.7 µM	29.2 µM	> 95.3 µM	4.81 µM	4.72 µM	4.27 µM	4.93 µM	2.91 µM	1.98 µM	3.38 µM	6.2 µM	5.9 µM	5.84 µM
CCOC(=O)C/C(N)=C(\C#N)C(=O)OCC	> 100 µM	> 100 µM	> 100 µM	> 100 µM	> 100 µM	> 100 µM	> 100 µM	> 100 µM	> 100 µM	> 100 µM	–	–	–	–	–	–	–	–	–	–
CCOC(=O)c1c(C(F)(F)F)n([O-])c2ccc(Cl)cc2[n+]1=O	3.71 µM	17.1 µM	3.14 µM	3.29 µM	2.64 µM	4.48 µM	5.13 µM	3.95 µM	3.21 µM	3.36 µM	2.11 µM	4.14 µM	1.69 µM	1.65 µM	1.17 µM	2.02 µM	2.07 µM	2.02 µM	1.74 µM	1.75 µM
O=C(NC1CCNCC1)c1[nH]ncc1NC(=O)c1c(Cl)cccc1Cl	> 100 µM	> 100 µM	> 100 µM	0.558 µM and 0.726 µM	0.671 µM	7.06 µM and 6.17 µM	0.999 µM and > 2.62 µM	3.82 µM and > 7.39 µM	0.7 µM and 0.666 µM	> 59.7 µM	1 µM and 0.543 µM	0.637 µM and 0.86 µM	2.95 µM and 3.03 µM	0.218 µM and 0.182 µM	0.323 µM and 0.222 µM	1.25 µM and 0.792 µM	0.329 µM and 0.313 µM	0.343 µM and 0.352 µM	0.271 µM and 0.257 µM	0.328 µM and 0.329 µM
Nc1cccc2c1CN(C1CCC(=O)NC1=O)C2=O (configuration not stated)	> 100 µM	> 100 µM	> 100 µM	> 100 µM	> 100 µM	> 100 µM	> 100 µM	> 100 µM	> 100 µM	> 100 µM	> 100 µM	> 100 µM	> 100 µM	> 100 µM	> 34.2 µM	> 100 µM	> 100 µM	> 100 µM	> 100 µM	> 100 µM
Cc1nn2c(=O)n(-c3cccc(-n4nnc5c(-c6ccccc6)c(C)nn5c4=O)c3C)nnc2c1-c1ccccc1	> 100 µM	> 100 µM	76.7 µM	42.7 µM	> 100 µM	29.6 µM	96.4 µM	> 100 µM	64 µM	> 100 µM	–	–	–	–	–	–	–	–	–	–
CS(=O)/C(C#N)=C\C=C\c1cccc(Cl)c1 (configuration not stated)	12.2 µM	16.8 µM	10.4 µM	4.44 µM	7 µM	11.2 µM	12 µM	14.5 µM	7.5 µM	7.81 µM	3.21 µM	2.99 µM	2.78 µM	2.25 µM	2.93 µM	2.57 µM	2.44 µM	2.46 µM	1.79 µM	1.71 µM
O=C1c2ccccc2C(=O)c2c(NCCNCCO)ccc(NCCNCCO)c21	4.66 µM and 14.3 µM and 12.9 µM	6.92 µM and 9.37 µM and 6.34 µM	49 µM and 13 µM and > 44.8 µM	3 µM and 5.1 µM and 2.64 µM	4.94 µM and 5.08 µM and 2.08 µM	8.52 µM and 13.6 µM and 11.6 µM	12.2 µM and 33 µM and 10.9 µM	2.61 µM and 3.34 µM and 3.76 µM	3.42 µM and 6.7 µM and 4.07 µM	5.18 µM and 6.64 µM and 2.96 µM	0.757 µM and 1.69 µM and 1.18 µM	0.195 µM and 0.183 µM and 0.123 µM	2.05 µM and 0.967 µM and 1.39 µM	1.01 µM and 1.27 µM and 0.724 µM	0.289 µM and 0.508 µM and 0.227 µM	1.9 µM and 2.64 µM and 1.7 µM	1.49 µM and 3.37 µM and 1.8 µM	0.276 µM and 0.257 µM and 0.36 µM	0.864 µM and 1.04 µM and 0.947 µM	0.373 µM and 0.442 µM and 0.285 µM
Cc1ccc(SC2C(C)(C)N(C(C)C)P2(=O)N(C(C)C)C(C)C)cc1 (configuration not stated)	> 100 µM	> 70.8 µM	> 100 µM	> 64.1 µM	58.3 µM	> 100 µM	36.8 µM	> 100 µM	> 100 µM	> 100 µM	–	–	–	–	–	–	–	–	–	–
NS(=O)(=O)c1cccc(-c2cc3ccncc3cc2OCc2ccccc2)c1	> 20.7 µM	> 25 µM	> 25 µM	> 25 µM	> 25 µM	> 25 µM	> 25 µM	> 25 µM	> 25 µM	> 25 µM	7.37 µM	10.3 µM	8.14 µM	10.7 µM	4.39 µM	14.5 µM	6.66 µM	14.5 µM	8.62 µM	13 µM
Nc1ncnc2c1nc(N)n2C1OC(CO)C(O)C1O (configuration not stated)	3.71 µM	2.02 µM	> 100 µM	1.16 µM	1.83 µM	0.355 µM	6.48 µM	2.81 µM	3.98 µM	7.06 µM	1.55 µM	0.331 µM	0.348 µM	0.142 µM	0.34 µM	0.11 µM	0.973 µM	0.93 µM	1.88 µM	1.35 µM
CCCCCCCCCCCCNC(=O)[C@H]1CSC(c2cc(Br)cs2)N1 (some centres not stated)	8.32 µM	14.1 µM	6.54 µM	16 µM	11.5 µM	1.65 µM	3.61 µM	1.42 µM	1.87 µM	2.26 µM	2.51 µM	6.99 µM	2.01 µM	8.16 µM	4.61 µM	0.858 µM	1.38 µM	0.598 µM	0.95 µM	1.05 µM
COc1ccccc1N(C(C)=O)C1=C(Cl)C(=O)c2ccccc2C1=O	12 µM	13.5 µM	2.73 µM	2.84 µM	1.85 µM	5.91 µM	3.96 µM	12.5 µM	4.77 µM	11.8 µM	3.15 µM	3.43 µM	1.43 µM	1.51 µM	0.304 µM	1.88 µM	0.833 µM	3.19 µM	1.45 µM	2.62 µM
O=c1c2cc(Br)ccc2[nH]c(=S)n1-c1ccccc1	> 100 µM	> 100 µM	> 100 µM	> 100 µM	> 100 µM	> 100 µM	> 100 µM	> 100 µM	> 100 µM	> 100 µM	–	–	–	–	–	–	–	–	–	–
N#Cc1ccc(N2Cc3cc(Cl)ccc3OC3=C2C(=O)N(Cc2ccc(F)cc2)C3=O)cc1	1.27 µM	23.2 µM	0.913 µM	3.65 µM	1.32 µM	9.33 µM	0.814 µM	1.66 µM	1.07 µM	1.68 µM	0.578 µM	7.34 µM	0.479 µM	1.57 µM	0.58 µM	2.81 µM	0.252 µM	0.658 µM	0.557 µM	0.672 µM
